For 54 compounds, IC50 and EC50 results are on record in US20150344457A1, “METHODS OF INHIBITING PRMT5” (EPIZYME, INC., priority 2012, published 2015).

Where only a bound is given, the exact number is not on record here.

For one experiment, the target named is T1, PRMT5/MEP50 (Homo sapiens, UniProt O14744).
T1 construct: Expressed full-length human Flag-PRMT5/6His-MeP50 protein complex was purified; made in house; host or cells: Spodoptera frugiperda (SF9) insect cells, baculovirus (pDEST8)
T1 sequence (O14744 with tags, fused parts or gaps): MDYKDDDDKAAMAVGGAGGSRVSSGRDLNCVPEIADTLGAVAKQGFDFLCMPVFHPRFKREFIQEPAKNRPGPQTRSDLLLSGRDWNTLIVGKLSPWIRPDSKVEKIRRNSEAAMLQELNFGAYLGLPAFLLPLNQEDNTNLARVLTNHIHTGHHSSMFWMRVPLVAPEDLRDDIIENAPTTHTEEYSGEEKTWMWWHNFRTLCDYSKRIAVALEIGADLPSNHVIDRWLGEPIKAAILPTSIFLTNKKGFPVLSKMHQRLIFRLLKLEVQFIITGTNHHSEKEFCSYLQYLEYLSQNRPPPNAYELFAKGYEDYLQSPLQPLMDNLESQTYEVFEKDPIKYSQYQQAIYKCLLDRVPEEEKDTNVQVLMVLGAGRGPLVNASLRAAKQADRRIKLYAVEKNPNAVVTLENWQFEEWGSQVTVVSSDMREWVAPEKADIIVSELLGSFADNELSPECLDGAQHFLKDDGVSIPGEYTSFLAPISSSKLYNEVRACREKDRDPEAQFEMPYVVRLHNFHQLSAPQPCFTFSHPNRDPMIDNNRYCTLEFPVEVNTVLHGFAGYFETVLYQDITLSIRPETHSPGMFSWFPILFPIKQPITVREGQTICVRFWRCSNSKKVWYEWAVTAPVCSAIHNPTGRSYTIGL
T1 sequence (Q9BQA1 with tags, fused parts or gaps partner limits assumed): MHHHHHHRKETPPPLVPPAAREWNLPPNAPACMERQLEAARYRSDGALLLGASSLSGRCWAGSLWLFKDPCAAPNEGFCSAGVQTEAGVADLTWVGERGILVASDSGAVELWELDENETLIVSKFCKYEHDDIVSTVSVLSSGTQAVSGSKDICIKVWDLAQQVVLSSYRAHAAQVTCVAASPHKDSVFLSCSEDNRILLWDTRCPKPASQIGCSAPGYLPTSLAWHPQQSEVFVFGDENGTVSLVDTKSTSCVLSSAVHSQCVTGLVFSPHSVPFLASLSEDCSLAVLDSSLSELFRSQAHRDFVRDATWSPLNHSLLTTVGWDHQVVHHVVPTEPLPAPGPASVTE
The experiment can be described thus: PRMT5 Biochemical Assay (PRMT5/MEP50 enzyme assay on peptide substrate, 3H-SAM Flashplate). Particulars: PRMT5 biochemical assay, Table C-2; read-out: Biochemical IC50.
As to `O=C1CC(c2ccccc2)CCN1C[C@@H](O)CN1CCc2ccccc2C1` (stereo partly drawn) [Compound C17], the IC50 (in general, the concentration that inhibits the measured activity by half) lay in the range of 1000 to 10000 nM.
On the same count and under the same terms, for `O=C1CC(c2ccccc2)CCN1C[C@H](O)CN1CCc2ccccc2C1` (stereo partly drawn) [Compound C16] the value was 1000 to 10000 nM; for `O=C1CN(Cc2cccnc2)CCN1CC(O)CN1CCc2ccccc2C1` (stereo not drawn) [Compound C26], 1000 to 10000 nM; for `O=C1CN(c2ccccc2Cl)CCN1CC(O)CN1CCc2ccccc2C1` (stereo not drawn) [Compound C9], 101 to 1000 nM.
Same read-out and setting: the figure for `CN(C)c1ccc(N2CCN(C[C@H](O)CN3CCc4ccccc4C3)C(=O)C2)cc1` [Compound C30] is 1000 to 10000 nM.

The same experiment, now with this note: Table A-2; PRMT5/MEP50 4 nM, 3H-SAM 75 nM, peptide 40 nM; read-out: Biochemical IC50.
Take `O=C(Cc1ccccc1)NC[C@H](O)CN1CCc2ccccc2C1` [Compound A55]: the concentration for half-maximal inhibition (IC50) is 101 to 1000 nM.
Still for that read-out and setting: the figure for `CN(C)c1cncc(OCC(=O)NCC(O)CN2CCc3ccccc3C2)c1` (stereo not drawn) [Compound A143] is 1000 to 10000 nM; for `O=C(CCc1ccccc1)NCC(O)CN1CCc2ccccc2C1` (stereo not drawn) [Compound A2] it is 1000 to 10000 nM.

Still in this experiment, the particulars now being: Table B-2; PRMT5/MEP50 4 nM, 3H-SAM 75 nM, peptide 40 nM; read-out: Biochemical IC50.
For the compound `CS(=O)(=O)Nc1ccc(C(=O)NCC(O)CN2CCc3ccccc3C2)cc1` (stereo not drawn) [Compound B31.], the IC50 fell in the range of 101 to 1000 nM.
On the same count and under the same terms, the figure for `CC1(C)CC(Nc2cccc(C(=O)NCC(O)CN3CCc4ccccc4C3)c2)CCO1` (stereo not drawn) [Compound B53.] is 101 to 1000 nM.
Consider `O=C(NCC(O)CN1CCc2ccccc2C1)c1cccc(-c2ccncc2)c1` (stereo not drawn) [Compound B9.], for which the IC50 was under 100 nM.
Same read-out and setting: for `Cc1c(NC2CCOCC2)cccc1C(=O)NCC(O)CN1CCc2ccccc2C1` (stereo not drawn) [Compound B40.] the value was under 100 nM; for `O=C(NCC(O)CN1CCc2ccccc2C1)c1ccc(OC2CCOCC2)cc1` (stereo not drawn) [Compound B58.], under 100 nM.
On the same count and under the same terms, for `O=C(NC[C@H](O)CN1CCc2ccccc2C1)c1cccc(NC2CCOCC2)c1` [Compound B44.] the value was under 100 nM; for `CS(=O)(=O)Nc1ccccc1C(=O)NCC(O)CN1CCc2ccccc2C1` (stereo not drawn) [Compound B27.], 1000 to 10000 nM; for `O=C(NCC(O)CN1CCc2ccccc2C1)c1cccc(C(=O)N2CCOCC2)c1` (stereo not drawn) [Compound B46.], 1000 to 10000 nM.
Same read-out and setting: for `O=C(NCC(O)CN1CCc2ccccc2C1)c1cccc(-c2ccccn2)c1` (stereo not drawn) [Compound B1.] the value was under 100 nM.
For the compound `CN1CCN(c2cccc(C(=O)NCC(O)CN3CCc4ccccc4C3)c2)CC1` (stereo not drawn) [Compound B36.], the IC50 is under 100 nM.
Same read-out and setting: the figure for `O=C(NCC(O)CN1CCc2ccccc2C1)c1cccc(C2CCCN2)c1` (stereo not drawn) [Compound B42.] is 101 to 1000 nM; for `CC(=O)Nc1cccc(C(=O)NCC(O)CN2CCc3ccccc3C2)c1` (stereo not drawn) [Compound B26.] it is 101 to 1000 nM.

Still in this experiment, the particulars now being: Table D-2; read-out: Biochemical IC50.
On to `OC(COCc1ccccc1)CN1CCc2ccccc2C1` (stereo not drawn) [Compound D308], for which the IC50 was in the range of 10000 to 40000 nM.
The same measure, in the same setting: for `CCCCNCc1cccc(COCC(O)CN2CCc3ccccc3C2)c1` (stereo not drawn) [Compound D286] the value was 101 to 1000 nM.
Take `O=S1(=O)CCN(c2ccc(OCC(O)CN3CCc4ccccc4C3)cc2)CC1` (stereo not drawn) [Compound D18]: the concentration for half-maximal inhibition (IC50) fell in the range of 1000 to 10000 nM.
Same read-out and setting: for `CN(Cc1ccc(OCC(O)CN2CCc3ccccc3C2)cc1)C1CCCC1` (stereo not drawn) [Compound D24] the value was 1000 to 10000 nM; for `COc1cc2c(cc1OC)CN(CC(O)COc1cccc(CNC3CCCC3)c1)CC2` (stereo not drawn) [Compound D30], over 40000 nM; for `OC(COCc1c(Cl)cccc1Cl)CN1CCc2ccccc2C1` (stereo not drawn) [Compound D280], 1000 to 10000 nM.
In the case of `CN1CCC(OCC(O)CN2CCc3ccccc3C2)CC1` (stereo not drawn) [Compound D293], the IC50 is over 40000 nM.
The same measure, in the same setting: the figure for `OC(COC1CCNCC1)CN1CCc2ccccc2C1` (stereo not drawn) [Compound D298] is over 40000 nM; for `COc1cccc2c1CN(CC(O)COc1cccc(CNC3CCCC3)c1)CC2` (stereo not drawn) [Compound D29] it is 10000 to 40000 nM; for `Cn1cnc2ccc(-c3cccc(OCC(O)CN4CCc5c(Cl)cccc5C4)c3)cc21` (stereo not drawn) [Compound D215] it is 1000 to 10000 nM.
Still for that read-out and setting: the figure for `OCc1ccc(-c2cccc(OCC(O)CN3CCc4ccccc4C3)c2)cc1` (stereo not drawn) [Compound D73] is 1000 to 10000 nM.
The same measure, in the same setting: the figure for `OC(COc1cccc(-c2ccc(C(F)(F)F)cc2)c1)CN1CCc2ccccc2C1` (stereo not drawn) [Compound D133] is 1000 to 10000 nM; for `OC(COc1cccc(-c2ccncc2)c1)CN1CCc2ccccc2C1` (stereo not drawn) [Compound D97] it is 1000 to 10000 nM; for `CC1c2ccccc2CCN1CC(O)COc1cccc(CNC2CCCC2)c1` (stereo not drawn) [Compound D50] it is 1000 to 10000 nM.
Consider `CN(C(=O)c1cncn1C)c1cccc(OCC(O)CN2CCc3ccccc3C2)c1` (stereo not drawn) [Compound D203], for which the IC50 is 1000 to 10000 nM.
The same measure, in the same setting: the figure for `O=C(Cn1ccc2cnc(-c3cccc(OCC(O)CN4CCc5ccccc5C4)c3)nc21)N1CCCCC1` (stereo not drawn) [Compound D232] is 101 to 1000 nM; for `Cc1ccc2c(c1)CN(CC(O)COc1cccc(-c3ccc4ncn(C)c4c3)c1)CC2` (stereo not drawn) [Compound D212] it is 1000 to 10000 nM; for `OC(COCc1cccnc1)CN1CCc2ccccc2C1` (stereo not drawn) [Compound D283] it is 10000 to 40000 nM.
On the same count and under the same terms, for `Cn1ccc2ccc(-c3ccnc(NCC(O)CN4CCc5ccccc5C4)c3)cc21` (stereo not drawn) [Compound D227] the value was under 100 nM; for `Cn1cnc2ccc(-c3cccc(OCC(O)CN4CCc5ccccc5C4=O)c3)cc21` (stereo not drawn) [Compound D225], over 40000 nM; for `OC(CNc1cc(-c2ccc3ncn(C4CNC4)c3c2)ccn1)CN1CCc2ccccc2C1` (stereo not drawn) [Compound D229], under 100 nM.
Still for that read-out and setting: the figure for `O=C(Cn1ccc2cnc(-c3cccc(OCC(O)CN4CCc5ccccc5C4)c3)nc21)N1CCCC1` (stereo not drawn) [Compound D231] is 101 to 1000 nM; for `CC1CN(CC(O)COc2cccc(CNC3CCCC3)c2)Cc2ccccc21` (stereo not drawn) [Compound D56] it is over 40000 nM; for `Cc1cccc2c1CN(CC(O)COc1cccc(-c3ccc4ncn(C)c4c3)c1)CC2` (stereo not drawn) [Compound D192] it is 1000 to 10000 nM.
For `CC(=O)N1CCC(n2cnc3ccc(-c4cccc(OCC(O)CN5CCc6ccccc6C5)c4)cc32)CC1` (stereo not drawn) [Compound D228], the 50% inhibitory concentration (IC50) fell in the range of 101 to 1000 nM.
For the compound `Oc1ccc(-c2cccc(OCC(O)CN3CCc4ccccc4C3)c2)cc1` (stereo not drawn) [Compound D96], the IC50 fell in the range of 1000 to 10000 nM.
Still for that read-out and setting: for `Cn1cnc2ccc(-c3cccc(OCC(O)CN4CCc5ccccc5C4Cc4ccccc4)c3)cc21` (stereo not drawn) [Compound D143] the value was over 40000 nM; for `OC(COCc1ccc(Cl)cc1)CN1CCc2ccccc2C1` (stereo not drawn) [Compound D278], 1000 to 10000 nM; for `CC1Cc2ccccc2CN1CC(O)COc1cccc(CNC2CCCC2)c1` (stereo not drawn) [Compound D51], over 40000 nM.

Still in this experiment, the particulars now being: Table E-2; read-out: Biochemical IC50.
With `CC(C)(C)OC(=O)Nc1cccc(C(=O)NCC(O)CN2Cc3ccccc3C2)c1` (stereo not drawn) [Compound E11.], the IC50 is 101 to 1000 nM.
Same read-out and setting: the figure for `O=C(COc1cccc2cccnc12)NCC(O)CN1Cc2ccccc2C1` (stereo not drawn) [Compound E19.] is 101 to 1000 nM; for `Cn1cnc2ccc(-c3cccc(OCC(O)CN4Cc5ccccc5C4)c3)cc21` (stereo not drawn) [Compound E9.] it is 1000 to 10000 nM.

In another experiment the test system is Z-138 cells. Briefly: Z-138 Proliferation Assay (Cell Titer Glo, 5 days). It is filed as cell-based. Particulars: Homo sapiens, Table D-2. From the text: Z-138 Proliferation Assay
Z-138 suspension cells were purchased from ATCC (American Type Culture Collection, Manassas, Va.). RPMI/Glutamax medium, penicillin-streptomycin, heat inactivated fetal bovine serum were purchased from Life Technologies, Grand Island, N.Y., USA. V-bottom polypropylene 384-well plates were purchased from Greiner Bio-One, Monroe, N.C., USA. Cell culture 384-well white opaque plates were purchased from Perkin Elmer, Waltham, Mass., USA. Cell-Titer Gb® was purchased from Promega Corporation, Madison, Wis., USA. SpectraMax M5 plate reader was purchased from Molecular Devices LLC, Sunnyvale, Calif., USA.
Z-138 suspension cells were maintained in growth medium (RPMI 1640 supplemented with 10% v/v heat inactivated fetal bovine serum and cultured at 37° C. under 5% CO2. Under assay conditions, cells were incubated in assay medium (RPMI 1640 supplemented with 10% v/v heat inactivated fetal bovine serum and 100 units/mL penicillin-streptomycin) at 37° C. under 5% CO2.
For the assessment of the effect of compounds on the proliferation of the Z-138 cell line, exponentially growing cells were plated in 384-well white opaque plates at a density of 10,000 cells/ml in a final volume of 50 μl of assay medium. A compound source plate was prepared by performing triplicate nine-point 3-fold serial dilutions in DMSO, beginning at 10 mM (final top concentration of compound in the assay was 20 μM and the DMSO was 0.2%). A 100 nL aliquot from the compound stock plate was added to its respective well in the cell plate. […] After addition of compounds, assay plates were incubated for 5 days at 37° C., 5% CO2, relative humidity >90%.
Cell viability was measured by quantitation of ATP present in the cell cultures, adding 35 μl of Cell Titer Glo® reagent to the cell plates. Luminescence was read in the SpectraMax M5 microplate reader. The concentration of compound inhibiting cell viability by 50% was determined using a 4-parametric fit of the normalized dose response curves.
(In general: In ATP-based viability assays light output follows the ATP content of the culture.)
Turning to `OC(COCc1ccccc1)CN1CCc2ccccc2C1` (stereo not drawn) [Compound D308], the EC50 (usually the concentration needed to bring the measured effect to its halfway point) was over 40000 nM.
Same read-out and setting: for `CCCCNCc1cccc(COCC(O)CN2CCc3ccccc3C2)c1` (stereo not drawn) [Compound D286] the value was over 20000 nM.
On the same count and under the same terms, the figure for `O[C@@H](COc1cccc(CNC2CCCC2)c1)CN1CCc2ccccc2C1` [Compound D23] is 10000 to 40000 nM; for `O=S1(=O)CCN(c2ccc(OCC(O)CN3CCc4ccccc4C3)cc2)CC1` (stereo not drawn) [Compound D18] it is over 20000 nM.
Still for that read-out and setting: for `CN(Cc1ccc(OCC(O)CN2CCc3ccccc3C2)cc1)C1CCCC1` (stereo not drawn) [Compound D24] the value was over 40000 nM.
Compound `COc1cc2c(cc1OC)CN(CC(O)COc1cccc(CNC3CCCC3)c1)CC2` (stereo not drawn) [Compound D30] returned an EC50 of 10000 to 40000 nM.
The compound `OC(COCc1c(Cl)cccc1Cl)CN1CCc2ccccc2C1` (stereo not drawn) [Compound D280] displayed an EC50 of 10000 to 40000 nM.
Same read-out and setting: for `CN1CCC(OCC(O)CN2CCc3ccccc3C2)CC1` (stereo not drawn) [Compound D293] the value was over 40000 nM.
On the same count and under the same terms, the figure for `OC(COC1CCNCC1)CN1CCc2ccccc2C1` (stereo not drawn) [Compound D298] is over 40000 nM; for `COc1cccc2c1CN(CC(O)COc1cccc(CNC3CCCC3)c1)CC2` (stereo not drawn) [Compound D29] it is 10000 to 40000 nM.
Still for that read-out and setting: the figure for `O[C@H](COc1cccc(CNC2CCCC2)c1)CN1CCc2ccccc2C1` [Compound D22] is 10000 to 40000 nM.
